Data: patent US20240208968A1, “ALPHA V BETA 6 AND ALPHA V BETA 1 INTEGRIN INHIBITORS AND USES THEREOF” (DiCE Molecules SV, Inc., priority 2021, published 2024)

How the values were obtained:
αvβ1 = αvβ1 (Homo sapiens, UniProt P05556+P06756); assay: Solid Phase Integrin αvβ1 Assay; format: binding
Outline: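 Compound competes for αvβ1 binding to immobilized TGFb1-LAP (1 µg/mL coat) in Mn2+ (1 mM MnCl2), 2% BSA binding buffer over 90 min at room temperature, integrin added at 0.2 µg/mL. Read-out: streptavidin-HRP/TMB; IC50 from Levenberg-Marquardt four-parameter fit.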

αvβ6 = αvβ6 (Homo sapiens, UniProt P06756+P18564); assay: Solid Phase Integrin αvβ6 Assay; format: binding
Outline: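 Inhibition of αvβ6 binding to immobilized recombinant TGFb1-LAP (1 μg/mL coating), 1 h at room temperature with 1 mM MnCl2 in BSA/TBST buffer, integrin diluted to 0.2 μg/mL before addition. Streptavidin-HRP/TMB read-out; four-parameter logistic fitting gave IC50.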

αvβ1, sequence (P06756 31-992 limits assumed): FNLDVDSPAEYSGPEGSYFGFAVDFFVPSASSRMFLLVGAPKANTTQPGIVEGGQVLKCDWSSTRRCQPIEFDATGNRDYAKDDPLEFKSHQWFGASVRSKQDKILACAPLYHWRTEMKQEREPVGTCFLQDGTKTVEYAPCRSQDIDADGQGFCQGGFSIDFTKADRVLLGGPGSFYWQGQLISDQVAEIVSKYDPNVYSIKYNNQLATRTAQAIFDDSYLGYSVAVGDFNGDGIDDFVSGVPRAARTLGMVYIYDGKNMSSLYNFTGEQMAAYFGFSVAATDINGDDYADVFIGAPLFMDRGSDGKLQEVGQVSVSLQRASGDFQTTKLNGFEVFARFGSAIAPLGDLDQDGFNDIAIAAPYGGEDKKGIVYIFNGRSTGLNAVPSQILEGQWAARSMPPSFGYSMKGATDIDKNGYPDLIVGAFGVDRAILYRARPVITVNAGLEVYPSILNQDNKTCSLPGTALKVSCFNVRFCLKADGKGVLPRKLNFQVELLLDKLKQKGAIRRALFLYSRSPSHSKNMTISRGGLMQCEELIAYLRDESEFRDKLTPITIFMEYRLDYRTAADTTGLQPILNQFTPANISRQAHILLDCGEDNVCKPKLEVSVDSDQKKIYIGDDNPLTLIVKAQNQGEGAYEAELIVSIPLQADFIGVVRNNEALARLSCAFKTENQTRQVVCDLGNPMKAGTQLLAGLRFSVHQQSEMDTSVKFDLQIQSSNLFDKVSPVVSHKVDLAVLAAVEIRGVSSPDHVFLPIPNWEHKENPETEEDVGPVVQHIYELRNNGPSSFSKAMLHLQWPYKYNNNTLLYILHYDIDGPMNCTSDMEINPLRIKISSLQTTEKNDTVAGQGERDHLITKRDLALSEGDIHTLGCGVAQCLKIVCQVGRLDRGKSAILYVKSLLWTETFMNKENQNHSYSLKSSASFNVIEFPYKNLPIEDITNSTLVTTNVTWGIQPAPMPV
αvβ1, sequence (P05556 21-728 limits assumed): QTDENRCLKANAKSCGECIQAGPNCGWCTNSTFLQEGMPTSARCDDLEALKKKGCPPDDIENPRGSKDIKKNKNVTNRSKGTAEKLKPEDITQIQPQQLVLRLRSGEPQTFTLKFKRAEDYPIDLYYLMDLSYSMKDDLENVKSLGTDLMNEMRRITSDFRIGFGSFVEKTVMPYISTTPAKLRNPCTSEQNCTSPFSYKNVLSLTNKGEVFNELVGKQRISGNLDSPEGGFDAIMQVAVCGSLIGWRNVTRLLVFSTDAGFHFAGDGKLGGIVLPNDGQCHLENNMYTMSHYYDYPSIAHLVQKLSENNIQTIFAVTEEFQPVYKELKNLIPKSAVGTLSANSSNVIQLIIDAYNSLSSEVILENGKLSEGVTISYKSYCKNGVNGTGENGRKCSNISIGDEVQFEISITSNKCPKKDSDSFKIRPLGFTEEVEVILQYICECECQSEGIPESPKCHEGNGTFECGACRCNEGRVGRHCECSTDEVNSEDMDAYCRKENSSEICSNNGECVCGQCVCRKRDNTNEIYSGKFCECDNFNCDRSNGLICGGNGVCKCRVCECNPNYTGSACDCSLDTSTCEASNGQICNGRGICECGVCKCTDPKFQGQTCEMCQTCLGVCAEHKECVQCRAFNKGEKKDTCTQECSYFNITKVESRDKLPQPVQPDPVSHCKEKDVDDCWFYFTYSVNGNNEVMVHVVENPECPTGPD
αvβ6, sequence (P06756 31-992 limits assumed): as the sequence (P06756 31-992 limits assumed) above
αvβ6, sequence (P18564 22-707 limits assumed): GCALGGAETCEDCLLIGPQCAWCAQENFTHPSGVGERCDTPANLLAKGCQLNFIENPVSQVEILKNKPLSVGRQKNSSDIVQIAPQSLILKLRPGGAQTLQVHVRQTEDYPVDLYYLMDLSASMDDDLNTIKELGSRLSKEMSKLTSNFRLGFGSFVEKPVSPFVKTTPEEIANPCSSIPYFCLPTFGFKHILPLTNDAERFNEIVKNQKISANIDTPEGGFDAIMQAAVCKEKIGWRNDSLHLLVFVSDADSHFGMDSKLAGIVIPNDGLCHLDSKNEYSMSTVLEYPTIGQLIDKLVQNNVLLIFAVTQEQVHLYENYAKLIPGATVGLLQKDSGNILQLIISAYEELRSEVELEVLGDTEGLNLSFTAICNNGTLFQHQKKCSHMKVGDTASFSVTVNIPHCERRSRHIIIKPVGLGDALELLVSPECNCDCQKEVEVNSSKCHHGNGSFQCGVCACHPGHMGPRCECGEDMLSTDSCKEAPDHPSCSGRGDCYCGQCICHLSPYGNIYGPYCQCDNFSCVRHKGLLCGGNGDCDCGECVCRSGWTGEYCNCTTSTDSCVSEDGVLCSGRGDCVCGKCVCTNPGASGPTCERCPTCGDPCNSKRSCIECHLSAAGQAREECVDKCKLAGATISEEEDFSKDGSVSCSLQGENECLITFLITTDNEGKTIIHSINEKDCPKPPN

Compound	IC50 (αvβ1)	IC50 (αvβ6)
O=C(O)[C@@H](CO[C@@H]1CCCN(CCCc2ccc3c(n2)NCCC3)C1)Nc1ncnc2ccccc12 [Compound 408]	> 1000 nM	> 1000 nM
O=C(O)[C@H](CO[C@@H]1CCCN(CCCCc2ccc3c(n2)NCCC3)C1)Nc1ncnc2ccccc12 [Compound 409]	> 1000 nM	< 100 nM
O=C(O)[C@@H](CO[C@@H]1CCCN(CCCCc2ccc3c(n2)NCCC3)C1)Nc1ncnc2ccccc12 [Compound 410]	> 1000 nM	> 1000 nM
O=C(O)[C@@H](CO[C@@H]1CCCN(Cc2ccc3c(n2)NCCC3)C1)Nc1ncnc2ccccc12 [Compound 411]	> 1000 nM	> 1000 nM
O=C(O)C[C@H](CC(=O)N[C@@H]1CCN(C(=O)CCCc2ccc3c(n2)NCCC3)C1)c1ccccc1 [Compound 416]	> 1000 nM	> 1000 nM
O=C(CC[C@H](C(=O)O)c1ccccc1)N[C@@H]1CCN(C(=O)CCCc2ccc3c(n2)NCCC3)C1 [Compound 418]	> 1000 nM	> 1000 nM
O=C(CC[C@@H](C(=O)O)c1ccccc1)N[C@@H]1CCN(C(=O)CCCc2ccc3c(n2)NCCC3)C1 [Compound 419]	> 1000 nM	> 1000 nM
O=C(CC[C@H](C(=O)O)c1ccccc1)N[C@@H]1CCN(CCCCc2ccc3c(n2)NCCC3)C1 [Compound 420]	> 1000 nM	> 1000 nM
O=C(CC[C@@H](C(=O)O)c1ccccc1)N[C@@H]1CCN(CCCCc2ccc3c(n2)NCCC3)C1 [Compound 421]	> 1000 nM	> 1000 nM
O=C(CC[C@H](C(=O)O)c1ccccc1)N[C@H]1CCN(CCCCc2ccc3c(n2)NCCC3)C1 [Compound 422]	> 1000 nM	> 1000 nM
O=C(CC[C@@H](C(=O)O)c1ccccc1)N[C@H]1CCN(C(=O)CCCc2ccc3c(n2)NCCC3)C1 [Compound 423]	> 1000 nM	> 1000 nM
O=C(CC[C@H](C(=O)O)c1ccccc1)N[C@H]1CCN(CCCCc2ccc3c(n2)NCCC3)C1 [Compound 424]	> 1000 nM	> 1000 nM
O=C(CC[C@@H](C(=O)O)c1ccccc1)N[C@H]1CCN(CCCCc2ccc3c(n2)NCCC3)C1 [Compound 425]	> 1000 nM	> 1000 nM
O=C(CC[C@@H](NC(=O)C12CCC(CC1)CC2)C(=O)O)N[C@@H]1CCN(CCCCc2ccc3c(n2)NCCC3)C1 [Compound 427]	> 1000 nM	> 1000 nM
O=C(CC[C@@H](NC(=O)C12CCC(CC1)CC2)C(=O)O)N[C@@H]1CCN(C(=O)CCCc2ccc3c(n2)NCCC3)C1 [Compound 429]	> 1000 nM	> 1000 nM
O=C(CC[C@@H](NC(=O)C12CCC(CC1)CC2)C(=O)O)N[C@H]1CCN(CCCCc2ccc3c(n2)NCCC3)C1 [Compound 431]	> 1000 nM	> 1000 nM
O=C(CC[C@@H](NC(=O)C12CCC(CC1)CC2)C(=O)O)N[C@H]1CCN(C(=O)CCCc2ccc3c(n2)NCCC3)C1 [Compound 433]	> 1000 nM	> 1000 nM
O=C(O)[C@@H](CCO[C@H]1CCCN(CCCc2ccc3c(n2)NCCC3)C1)Nc1ncnc2ccccc12 [Compound 444]	> 1000 nM	> 1000 nM
CN1CCc2cc(S(=O)(=O)N[C@H](CNC(=O)[C@@H]3CCCN(CCCc4ccc5c(n4)NCCC5)C3)C(=O)O)ccc21 [Compound 450]	> 1000 nM	100 to 1000 nM
O=C(O)[C@](O)(CO[C@@H]1CCCN(CCCc2ccc3c(n2)NCCC3)C1)c1ccccc1 [Compound 452]	> 1000 nM	> 1000 nM
O=C(O)[C@@](O)(CO[C@@H]1CCCN(CCCc2ccc3c(n2)NCCC3)C1)c1ccccc1 [Compound 453]	> 1000 nM	> 1000 nM
O=C(O)[C@@](O)(CO[C@@H]1CCCN(CCCCc2ccc3c(n2)NCCC3)C1)c1ccccc1 [Compound 454]	> 1000 nM	> 1000 nM
O=C(O)[C@](O)(CO[C@@H]1CCCN(CCCCc2ccc3c(n2)NCCC3)C1)c1ccccc1 [Compound 455]	> 1000 nM	> 1000 nM

Second part, the molecule after the results:

IC50 (αvβ1)	IC50 (αvβ6)	Compound
> 1000 nM	> 1000 nM	O=C(O)[C@@H](CO[C@@H]1CCCN(Cc2ccc3c(n2)NCCC3)C1)NC(=O)C12CCC(CC1)CC2 [Compound 403]
> 1000 nM	> 1000 nM	O=C(O)[C@H](CO[C@@H]1CCCN(Cc2ccc3c(n2)NCCC3)C1)NC(=O)C12CCC(CC1)CC2 [Compound 404]
100 to 1000 nM	< 100 nM	O=C(O)[C@@H](CCO[C@@H]1CCCN(CCCCc2ccc3c(n2)NCCC3)C1)Nc1ncnc2ccccc12 [Compound 405]
100 to 1000 nM	100 to 1000 nM	O=C(O)[C@@H](CCO[C@@H]1CCCN(CCc2ccc3c(n2)NCCC3)C1)Nc1ncnc2ccccc12 [Compound 406]
> 1000 nM	> 1000 nM	O=C(O)[C@@H](CCO[C@@H]1CCCN(Cc2ccc3c(n2)NCCC3)C1)Nc1ncnc2ccccc12 [Compound 407]
< 100 nM	< 100 nM	O=C(O)C[C@@H](NC(=O)[C@@H]1CCCN(CCCc2ccc3c(n2)NCCC3)C1)c1cccc(OC2COC2)c1 [Compound 412]
< 100 nM	< 100 nM	O=C(O)C[C@@H](NC(=O)[C@@H]1CCCN(CCCc2ccc3c(n2)NCCC3)C1)c1cnc2ccccc2c1 [Compound 413]
< 100 nM	> 1000 nM	O=C(O)C[C@@H](CC(=O)N[C@@H]1CCN(CCCCc2ccc3c(n2)NCCC3)C1)c1ccccc1 [Compound 414]
100 to 1000 nM	100 to 1000 nM	O=C(O)C[C@H](CC(=O)N[C@@H]1CCN(CCCCc2ccc3c(n2)NCCC3)C1)c1ccccc1 [Compound 415]
< 100 nM	100 to 1000 nM	O=C(O)C[C@@H](CC(=O)N[C@@H]1CCN(C(=O)CCCc2ccc3c(n2)NCCC3)C1)c1ccccc1 [Compound 417]
< 100 nM	< 100 nM	O=C(CC[C@H](NC(=O)C12CCC(CC1)CC2)C(=O)O)N[C@@H]1CCN(CCCCc2ccc3c(n2)NCCC3)C1 [Compound 426]
< 100 nM	< 100 nM	O=C(CC[C@H](NC(=O)C12CCC(CC1)CC2)C(=O)O)N[C@@H]1CCN(C(=O)CCCc2ccc3c(n2)NCCC3)C1 [Compound 428]
< 100 nM	< 100 nM	O=C(CC[C@H](NC(=O)C12CCC(CC1)CC2)C(=O)O)N[C@H]1CCN(CCCCc2ccc3c(n2)NCCC3)C1 [Compound 430]
< 100 nM	< 100 nM	O=C(CC[C@H](NC(=O)C12CCC(CC1)CC2)C(=O)O)N[C@H]1CCN(C(=O)CCCc2ccc3c(n2)NCCC3)C1 [Compound 432]
< 100 nM	< 100 nM	O=C(CC[C@H](NC(=O)[C@H]1CCCN1S(=O)(=O)c1ccccc1)C(=O)O)N[C@H]1CCN(CCCCc2ccc3c(n2)NCCC3)C1 [Compound 434]
< 100 nM	100 to 1000 nM	O=C(CC[C@H](NC(=O)[C@@H]1CCCN1S(=O)(=O)c1ccccc1)C(=O)O)N[C@H]1CCN(CCCCc2ccc3c(n2)NCCC3)C1 [Compound 435]

IC50 (αvβ1)	IC50 (αvβ6)	Compound
100 to 1000 nM	> 1000 nM	O=C(CC[C@@H](NC(=O)[C@H]1CCCN1S(=O)(=O)c1ccccc1)C(=O)O)N[C@H]1CCN(CCCCc2ccc3c(n2)NCCC3)C1 [Compound 436]
< 100 nM	> 1000 nM	O=C(CC[C@@H](NC(=O)[C@@H]1CCCN1S(=O)(=O)c1ccccc1)C(=O)O)N[C@H]1CCN(CCCCc2ccc3c(n2)NCCC3)C1 [Compound 437]
< 100 nM	< 100 nM	O=C(CC[C@H](NC(=O)[C@H]1CCCN1S(=O)(=O)c1ccccc1)C(=O)O)N[C@H]1CCN(C(=O)CCCc2ccc3c(n2)NCCC3)C1 [Compound 438]
< 100 nM	100 to 1000 nM	O=C(CC[C@H](NC(=O)[C@@H]1CCCN1S(=O)(=O)c1ccccc1)C(=O)O)N[C@H]1CCN(C(=O)CCCc2ccc3c(n2)NCCC3)C1 [Compound 439]
100 to 1000 nM	> 1000 nM	O=C(CC[C@@H](NC(=O)[C@H]1CCCN1S(=O)(=O)c1ccccc1)C(=O)O)N[C@H]1CCN(C(=O)CCCc2ccc3c(n2)NCCC3)C1 [Compound 440]
< 100 nM	> 1000 nM	O=C(CC[C@@H](NC(=O)[C@@H]1CCCN1S(=O)(=O)c1ccccc1)C(=O)O)N[C@H]1CCN(C(=O)CCCc2ccc3c(n2)NCCC3)C1 [Compound 441]
100 to 1000 nM	100 to 1000 nM	O=C(O)C[C@H](CO[C@H]1CCCN(CCCc2ccc3c(n2)NCCC3)C1)c1ccccc1 [Compound 442]
100 to 1000 nM	100 to 1000 nM	O=C(O)[C@@H](CCO[C@H]1CCCN(CCCc2ccc3c(n2)NCCC3)C1)NC(=O)C12CCC(CC1)CC2 [Compound 443]
100 to 1000 nM	100 to 1000 nM	O=C(O)C[C@@H](CO[C@H]1CCCN(CCCc2ccc3c(n2)NCCC3)C1)c1ccccc1 [Compound 445]
100 to 1000 nM	< 100 nM	O=C(O)[C@H](CCO[C@H]1CCCN(CCCc2ccc3c(n2)NCCC3)C1)Nc1ncnc2ccccc12 [Compound 446]
< 100 nM	< 100 nM	O=C(O)[C@H](CCO[C@H]1CCCN(CCCc2ccc3c(n2)NCCC3)C1)NC(=O)C12CCC(CC1)CC2 [Compound 447]
< 100 nM	< 100 nM	CN1CCc2ccc(S(=O)(=O)N[C@@H](CNC(=O)[C@@H]3CCCN(CCCc4ccc5c(n4)NCCC5)C3)C(=O)O)cc21 [Compound 448]
< 100 nM	< 100 nM	O=C(NC[C@@H](Nc1cc(-c2ccccc2)ncn1)C(=O)O)[C@@H]1CCCN(CCCc2ccc3c(n2)NCCC3)C1 [Compound 449]
< 100 nM	< 100 nM	O=C(NC[C@H](Nc1ncc(C(F)(F)F)cn1)C(=O)O)[C@@H]1CCCN(CCCc2ccc3c(n2)NCCC3)C1 [Compound 451]
< 100 nM	< 100 nM	O=C(O)C[C@H](CO[C@@H]1CCCN(CCCc2ccc3c(n2)NCCC3)C1)c1cccc(-c2ccccc2)c1 [Compound 456]
